Laboratory results as given in ChEMBL document CHEMBL5241127, “Design, synthesis and biological evaluation of novel 9-N-substituted-13-alkylberberine derivatives from Chinese medicine as anti-hepatocellular carcinoma agents” (Bioorg Med Chem, 2023).
One block for each molecule: values may come before it. Activity calls are given as the source filed them. No cut-off for these calls is given here.

What was measured:
HepG2 [1] = assay: Antiproliferative activity against human HepG2 cells assessed as inhibition of cell growth incubated for 72 hrs by MTT assay; assay type: functional, cell-based; conditions: HepG2, 72 h
DNA = assay: Binding affinity to duplex DNA (unknown origin) using fluorescent tagged F10T model assessed as stabilization by measuring change in melting temperature at 2 uM by fluorescence based analysis; assay type: nucleic-acid assay
Quadruplex DNA [2] = assay: Binding affinity to c-MYC G4-quadruplex DNA (unknown origin) using fluorescent tagged FPu18T model assessed as stabilization by measuring change in melting temperature at 2 uM by fluorescence based analysis; assay type: nucleic-acid assay
Quadruplex DNA [3] = assay: Binding affinity to c-MYC G4-quadruplex DNA (unknown origin) using fluorescent tagged FPu18T model assessed as stabilization by measuring change in melting temperature at 2 uM incubated in presence of non-fluorescent ds26 DNA by fluorescence based analysis; assay type: nucleic-acid assay
[4] = Drug concentration in Sprague-Dawley rat plasma at 1 mg/kg, iv measured after 5 mins by LC-MS/MS analysis; assay type: ADME, organism-based
HepG2 [5] = assay: Induction of cell cycle arrest in human HepG2 cells assessed as accumulation of cells at G2 phase at 0.15 to 0.6 uM incubated for 72 hrs by RNaseA/PI staining based flow cytometry analysis (reference value: 12.99%); assay type: functional; conditions: dose 0.15-0.6 µM
HepG2 [6] = assay: Induction of ROS production in human HepG2 cells assessed as increase in ROS positive cells at 0 to 0.60 uM incubated for 72 hrs by DCF-DA staining based flow cytometry analysis (reference value: 4.21%); assay type: functional; conditions: dose 0-0.6 µM
HepG2 [7] = assay: Effect on PI3K total protein level in human HepG2 cells at 0 to 0.6 uM incubated for 72 hrs by Western blot analysis; assay type: functional, cell-based; conditions: dose 0-0.6 µM
HepG2 [8] = assay: Induction of apoptosis in human HepG2 cells assessed as increase in cleaved caspase 3 expression incubated for 72 hrs by Western blot analysis; assay type: functional, cell-based; conditions: dose 0.15-0.6 µM
[9] = Half life in Sprague-Dawley rat at 1 mg/kg, iv measured for 24 hrs by LC-MS/MS analysis; assay type: ADME, organism-based; conditions: in vivo
[10] = AUC (0 to t) in Sprague-Dawley rat at 1 mg/kg, iv measured for 24 hrs by LC-MS/MS analysis; assay type: ADME, organism-based; design: dose 1 mg/kg, time 24 hrs, route iv; conditions: in vivo
H22 [11] = assay: Antitumor activity against […] xenografted in ICR mouse assessed as reduction in tumor volume administered intravenously for 21 days and measured every 2 days; assay type: functional, cell-based; conditions: dose 10-20 mg/kg, route iv, time 21.0 day
Quadruplex DNA [12] = assay: Stabilization of c-MYC G4-quadruplex DNA in human HepG2 cells assessed as downregulation of c-myc expression incubated for 72 hrs by Western blot analysis; assay type: cell-based; conditions: dose 0.15-0.6 µM
[13] = MRT (0 to t) in Sprague-Dawley rat at 1 mg/kg, iv measured for 24 hrs by LC-MS/MS analysis; assay type: ADME, organism-based; conditions: in vivo
[14] = Clearance in Sprague-Dawley rat at 1 mg/kg, iv measured for 24 hrs by LC-MS/MS analysis; assay type: ADME, organism-based; conditions: in vivo
HepG2 [15] = assay: Induction of G2/M phase cell cycle arrest in human HepG2 cells assessed as downregulation of cdc2 protein expression incubated for 72 hrs by Western blot analysis; assay type: functional, cell-based; conditions: dose 0.15-0.6 µM
Quadruplex DNA [16] = assay: Stabilization of c-MYC G4-quadruplex DNA in human HepG2 cells assessed as BG4 foci formation at 0.3 uM incubated for 72 hrs by confocal laser scanning microscope based analysis; assay type: cell-based
HepG2 [17] = assay: Induction of ROS production in human HepG2 cells assessed as increase in ROS positive cells at 0.06 uM preincubated with ROS scavenger, NAC followed by compound addition and further incubated for 72 hrs by DCF-DA staining based flow cytometry analysis (reference value: 4.21%); assay type: functional
[18] = Toxicity in ICR mouse xenografted with […] H22 cells assessed as abnormalities in liver at 20 mg/kg, iv administered for 21 days; assay type: organism-based; conditions: in vivo, 504 h, time 21 day
HepG2 [19] = assay: Potency index, ratio of cisplatin IC50 to test compound IC50 for antiproliferative activity against human HepG2 cells assessed as inhibition of cell growth incubated for 72 hrs by MTT assay; assay type: functional
[20] = Toxicity in ICR mouse xenografted with […] H22 cells assessed as abnormalities in spleen at 20 mg/kg, iv administered for 21 days; assay type: organism-based; conditions: in vivo, 504 h, time 21 day
[21] = Toxicity in ICR mouse xenografted with […] H22 cells assessed as reduction in body weight at 10 to 20 mg/kg, iv administered for 21 days and measured every 2 days; assay type: organism-based; conditions: in vivo, 504 h, dose 10-20 mg/kg, time 21 day
HepG2 [22] = assay: Potency index, ratio of cisplatin IC50 to test compound IC50 for antiproliferative activity against cisplatin-resistant human HepG2 cells assessed as inhibition of cell growth incubated for 72 hrs by MTT assay; assay type: functional
H22 [23] = assay: Antitumor activity against […] xenografted in ICR mouse assessed as reduction in tumor weight administered intravenously for 21 days; assay type: functional, cell-based; conditions: dose 10-20 mg/kg, route iv, time 21.0 day
HepG2 [24] = assay: Induction of apoptosis in human HepG2 cells assessed as increase in total apoptotic cells at 0.15 to 0.6 uM incubated for 72 hrs by AnnexinV-FITC/propidium iodide staining based flow cytometry (reference value: 4.1%); assay type: functional; conditions: dose 0.15-0.6 µM
[25] = Toxicity in ICR mouse xenografted with […] H22 cells assessed as abnormalities in kidney at 20 mg/kg, iv administered for 21 days; assay type: organism-based; conditions: in vivo, 504 h, time 21 day
SK-HEP1 = assay: Antiproliferative activity against human SK-HEP1 cells assessed as inhibition of cell growth incubated for 72 hrs by MTT assay; assay type: functional, cell-based; conditions: SK-HEP1, 72 h
[26] = Toxicity in ICR mouse xenografted with […] H22 cells assessed as abnormalities in lung at 20 mg/kg, iv administered for 21 days; assay type: organism-based; conditions: in vivo, 504 h, time 21 day
HepG2 [27] = assay: Induction of apoptosis in human HepG2 cells assessed as increase in cytochrome C protein expression incubated for 72 hrs by Western blot analysis; assay type: functional, cell-based; conditions: dose 0.15-0.6 µM
HepG2 [28] = assay: Downregulation of p-PI3K protein expression in human HepG2 cells incubated for 72 hrs by Western blot analysis; assay type: functional, cell-based; conditions: dose 0-0.6 µM
Quadruplex DNA [29] = assay: Stabilization of c-MYC G4-quadruplex DNA in human HepG2 cells assessed as colocalization with BG4 in G4-forming region at 0.3 uM incubated for 72 hrs by confocal laser scanning microscope based analysis; assay type: cell-based
HepG2 [30] = assay: Downregulation of p-AKT protein expression in human HepG2 cells incubated for 72 hrs by Western blot analysis; assay type: functional, cell-based; conditions: dose 0-0.6 µM
HepG2 [31] = assay: Antiproliferative activity against cisplatin-resistant human HepG2 cells assessed as inhibition of cell growth incubated for 72 hrs by MTT assay; assay type: functional, cell-based; conditions: HepG2, 72 h
H22 [32] = assay: Antitumor activity against […] xenografted in ICR mouse assessed as inhibition of tumor growth at 10 mg/kg, iv administered for 21 days and measured every 2 days relative to control; assay type: functional; conditions: H22, 504 h, time 21 day, read-out: TGI
Hep 3B2 = assay: Antiproliferative activity against human Hep3B cells assessed as inhibition of cell growth incubated for 72 hrs by MTT assay; assay type: functional, cell-based
HepG2 [33] = assay: Induction of mitochondrial dysfunction in human HepG2 cells assessed as increase in cells with collapsed mitochondrial membrane potential at 0.15 to 0.6 uM incubated for 72 hrs by JC-1 staining based flow cytometry analysis (reference value: 4.84%); assay type: functional; conditions: dose 0.15-0.6 µM
HepG2 [34] = assay: Induction of apoptosis in human HepG2 cells assessed as reduction in Bcl-2 protein expression at […] incubated for 72 hrs by Western blot analysis; assay type: functional, cell-based; conditions: dose lower 0.15 µM
HepG2 [35] = assay: Induction of cell cycle arrest in human HepG2 cells assessed as accumulation of cells at S phase at 0.15 to 0.6 uM incubated for 72 hrs by RNaseA/PI staining based flow cytometry analysis (reference value: 35.98%); assay type: functional; conditions: dose 0.15-0.6 µM
H22 [36] = assay: Antitumor activity against […] xenografted in ICR mouse assessed as inhibition of tumor growth at 20 mg/kg, iv administered for 21 days and measured every 2 days relative to control; assay type: functional; conditions: H22, 504 h, time 21 day, read-out: TGI
HepG2 [37] = assay: Induction of apoptosis in human HepG2 cells assessed as increase in Bax protein expression incubated for 72 hrs by Western blot analysis; assay type: functional, cell-based; conditions: dose 0.15-0.6 µM
[38] = Antiproliferative activity against human LX2 cells assessed as inhibition of cell growth incubated for 72 hrs by MTT assay; assay type: functional, cell-based; conditions: LX-2, 72 h
HepG2 [39] = assay: Induction of G2/M phase cell cycle arrest in human HepG2 cells assessed as downregulation of cyclinB1 protein expression incubated for 72 hrs by Western blot analysis; assay type: functional, cell-based; conditions: dose 0.15-0.6 µM
[40] = Initial plasma concentration in Sprague-Dawley rat at 1 mg/kg, iv by LC-MS/MS analysis; assay type: ADME, organism-based
HepG2 [41] = assay: Induction of G2/M phase cell cycle arrest in human HepG2 cells assessed as upregulation of p-cdc25c protein expression incubated for 72 hrs by Western blot analysis; assay type: functional, cell-based; conditions: dose 0.15-0.6 µM
Huh-7 = assay: Antiproliferative activity against human Huh-7 cells assessed as inhibition of cell growth incubated for 72 hrs by MTT assay; assay type: functional, cell-based; conditions: Huh-7, 72 h
HepG2 [42] = assay: Effect on AKT total protein level in human HepG2 cells at 0 to 0.6 uM incubated for 72 hrs by Western blot analysis; assay type: functional, cell-based; conditions: dose 0-0.6 µM
[43] = Toxicity in ICR mouse xenografted with […] H22 cells assessed as abnormalities in heart at 20 mg/kg, iv administered for 21 days; assay type: organism-based; conditions: in vivo, 504 h, time 21 day

SMILES: CCCCCCCCc1c2[n+](cc3c(NCCO)c(OC)ccc13)CCc1cc3c(cc1-2)OCO3
IC50 (HepG2 [1]): 2.76 µM

SMILES: CCCCCCCCc1c2[n+](c3c4c(c(OC)ccc14)N(CCO)C=C3)CCc1cc3c(cc1-2)OCO3
IC50 (HepG2 [1]): 2.28 µM

SMILES: CCCCCCCCc1c2[n+](cc3c(NCCCN4CCCC4)c(OC)ccc13)CCc1cc3c(cc1-2)OCO3
IC50 (HepG2 [1]): 1.37 µM
ΔTm (DNA): 1.8 °C
ΔTm (Quadruplex DNA [2]): 23.1 °C
ΔTm (Quadruplex DNA [3]): 19.3 °C

Now those with a lower IC50 (HepG2 [1]), led by results:

IC50 (HepG2 [1]): 1.12 µM
ΔTm (DNA): 0.6 °C
ΔTm (Quadruplex DNA [2]): 18.5 °C
ΔTm (Quadruplex DNA [3]): 17.4 °C
SMILES: CCCCCCCCc1c2[n+](cc3c(NCCCN4CCOCC4)c(OC)ccc13)CCc1cc3c(cc1-2)OCO3

concentration at 5 min [4]: 758 ng/mL
half-life [9]: 2.62 h
AUC(0-t) at 24 h [10]: 674 ng·h/mL
MRT last at 24 h [13]: 1.81 h
clearance [14]: 21.7 mL/min/kg
IC50 (SK-HEP1): 1.07 µM
IC50 (HepG2 [1]): 0.64 µM
IC50 (HepG2 [31]): 2.12 µM
ΔTm (DNA): 0.2 °C
ΔTm (Quadruplex DNA [2]): 21.4 °C
C0 [40]: 872 ng/mL
ΔTm (Quadruplex DNA [3]): 20.9 °C
IC50 (Huh-7): 0.58 µM
SMILES: CCCCCCCCc1c2[n+](cc3c(NCCN(C)C)c(OC)ccc13)CCc1cc3c(cc1-2)OCO3.[Cl-]
Activity (HepG2 [5]): 27.61%
Activity (HepG2 [6]): 52.48%
Activity (HepG2 [7]): inactive
Activity (HepG2 [8]): Dose-Dependent Effect
Activity (H22 [11]): Dose-Dependent Effect
Activity (Quadruplex DNA [12]): Dose-Dependent Effect
Activity (HepG2 [15]): Dose-Dependent Effect
Activity (Quadruplex DNA [16]): Active
Activity (HepG2 [17]): 3.67%
Activity [18]: Non-Toxic
Ratio IC50 (HepG2 [19]): >10
Activity [20]: Non-Toxic
Activity [21]: Non-Toxic
Ratio IC50 (HepG2 [22]): >40
Activity (H22 [23]): Dose-Dependent Effect
Activity (HepG2 [24]): 51.25%
Activity [25]: Non-Toxic
Activity [26]: Non-Toxic
Activity (HepG2 [27]): Dose-Dependent Effect
Activity (HepG2 [28]): Dose-Dependent Effect
Activity (Quadruplex DNA [29]): Active
Activity (HepG2 [30]): Dose-Dependent Effect
inhibition in vivo at 10 mg/kg (H22 [32]): 51.8%
IC50 (Hep 3B2): 1.15 µM
Activity (HepG2 [33]): 40.73%
Activity (HepG2 [34]): Active
Activity (HepG2 [35]): 21.63%
inhibition in vivo at 20 mg/kg (H22 [36]): 62.9%
Activity (HepG2 [37]): Dose-Dependent Effect
IC50 [38]: 8.62 µM
Activity (HepG2 [39]): Dose-Dependent Effect
Activity (HepG2 [41]): Dose-Dependent Effect
Activity (HepG2 [42]): inactive
Activity [43]: Non-Toxic
